The results in this text go back to US10765625B2, “Knottin-drug conjugates and methods of using the same” (THE BOARD OF TRUSTEES OF THE LELAND STANFORD JUNIOR …, priority 2016, dated 2020).

Positions of bridges follow the written chain, without caps; N, C: chain ends. Non-standard residues stand in square brackets, D forms with d. Residues, ends and D or L forms follow the SMILES beside them. Orn(N3) = [N-]=[N+]=NCCC[C@H](N)C(=O)O

The test system of assay [1] is U87MG cells. Put plainly: Premature drug release study: cell proliferation (CCK-8) with hENT1 inhibitor 6 co-administered. The format is cell-based. To be noted: for Fold Increase in ED50 in U87MG Cells: ED50 with 6 / ED50 without 6, minus 1. The method, then: (§1) U87MG, and PANC-1 cells were grown in Dulbecco's Modified Eagle Medium (DMEM) with 10% fetal bovine serum (FBS) and 1% penicillin/streptomycin. MDA-MB-468 cells were grown in DMEM and Ham's F-12 medium (DMEM/F12) with 10% FBS and 1% penicillin/streptomycin. A2780 and BxPC3 cells were grown in Roswell Park Memorial Institute medium (RPMI) 1640+L-glutamine, with 10% FBS and 1% penicillin/streptomycin. D270 cells were grown in MEM (Richter's modification, no phenol red) with 10% FBS and 0.1% Gentamicin. Unless otherwise specified, cells were incubated at 37° C., 5% CO2. Flow cytometry was performed using an EMD Millpore Guava EasyCyte 8HT flow cytometer and the resulting data were evaluated using FlowJo software provided by TreeStar, Inc. Cell proliferation was measured using the Dojindo Cell Counting Kit-8 by replacing the media in each well with 100 μL of media containing 10% WST-8. After incubation for 1 h at 37° C., absorbance, A, at 450 nm was measured with a BioTek Synergy H4 microtiter plate reader. The background signal of CCK-8 alone was subtracted from all samples. Cell proliferation was then expressed as a percentage of absorbance relative to the control of untreated cells (Equation 2). Nonlinear regression analysis was performed using GraphPad Prism.
The relative extent of premature drug-release in the cases of 5a, 5c, and 5d was next determined in order to identify the linker best-suited for delivering the drug payload intracellularly. An established technique for blocking the cellular uptake of Gemcitabine by using S (4-nitrobenzyl)-6-thioinosine (6) was employed, which is known to inhibit human equilibrative nucleoside transporters, such as hENT1. Because hENT1 is a critical regulator of the cellular internalization of Gemcitabine, it was reasoned that by inhibiting its activity with 6, the cytotoxic effect of any drug payload that was released in the extracellular environment could be diminished. It was anticipated that this would allow the distinction between KDCs that were potent due to the undesirable release of Gemcitabine outside of the cell from those that released Gemcitabine intracellularly (FIG. 6). The extent of premature drug release in the extracellular environment was studied by inhibiting activity of nucleoside transporters (such as hENT1) of U87MG cells through the use of the hENT1 inhibitor S-(4-nitrobenzyl)-6-thioinosine (6). […] In a similar fashion, it was expected that for KDCs which released a significant amount of the drug payload in the extracellular environment, an increase in the concentration of 6 should result in a concomitant increase in ED50 value.
Media used to prepare varying concentrations of drug, protein, or protein-drug conjugate also contained varying concentrations of the hENT1 inhibitor, 6. Additionally, prior to treatment, cell were incubated at 37° C., 5% CO2 with fresh media containing the varying concentrations of 6 for 2 h. Cell proliferation was measured using the Cell Counting Kit-8 by replacing the media in each well with 100 μL of media containing 10% WST-8. After incubation for 1 h at 37° C., absorbance at 450 nm was measured with a Synergy H4 microtiter plate reader. ED50 values were determined by nonlinear regression analysis. Example dose-response curves for 3 (FIG. 7) and 5d (FIG. 8) are provided. Cell proliferation was measured according to the method described in Section 1.3. Error bars represent the standard deviation of experiments performed in triplicate.
These values were normalized as Fold Increase in ED50 (defined in Equation 2) by dividing the ED50 of each drug when 6 was co-administered at concentration=C by the ED50 of that same drug when no 6 was added, then subtracting 1 (thus, a “0-fold increase” would mean no increase, while a “1-fold increase” would mean that the ED50 value had doubled). Fold Increase in ED50 for each drug at each concentration of 6 is provided in Table 5, and these values were used to generate FIG. 9.

Assay [2] has as its system U87MG cells. The assay is described as follows: Competition binding assay with AF488-labeled EETI-2.5F (AF488-1), flow cytometry. To be noted: for IC50: competition with 1 nM AF488-1, 4° C., 3 hours, read-out: IC50 (nM), binding affinity. The method, then: Once the knottin-drug conjugates 5a-d were prepared, their binding affinity to U87MG glioblastoma cells, which are known to have elevated expression of tumor-associated integrins, was tested. […] To measure the relative binding affinities of knottins 1 and 2 and KDCs 5a-d, competition binding assays were performed using AlexaFluor 488-conjugated EETI-2.5F (AF488-1) as previously described (J. W. Kim, et al., J. Am. Chem. Soc. 2015, 137, 6-9). Cells (5×10^4 per sample) were detached with 0.05% Trypsin-EDTA, washed with IBB (25 mM Tris pH 7.4, 150 mM NaCl, 2 mM CaCl2, 1 mM MgCl2, 1 mM MnCl2, and 0.1% bovine serum albumin), and incubated with 1 nM AF488-1 and varying concentrations of competitors in 800 μL of IBB at 4° C. for 3 hours. The cells were washed twice with 800 μL of PBSA (phosphate buffered saline containing 0.1% bovine serum albumin) and the fluorescence of the surface-bound AF488-1 was determined using flow cytometry. The fluorescence was normalized to that of cells treated with AF488-1 alone to obtain the fraction bound. Half-maximal inhibitory concentration (IC50) values were determined by nonlinear regression analysis. Error bars represent the standard deviation of experiments performed in triplicate.

Assay [3] concerns U87MG cells. The assay is described as follows: Integrin-blocking competition: cell proliferation (CCK-8) after pre-treatment with EETI-2.5F (1). The format is cell-based. To be noted: 1 μM 1, 3 h pre-treatment and co-treatment. The method, then: as §1
One possible explanation for the apparent hENT1-independence of 5d is that its route of internalization could be integrin-mediated. The role of integrin-binding in the biological potency and hENT1-independence of 5d was determined. A competition experiment was carried out in which U87MG cells were pre-treated with unconjugated EETI-2.5F (1) in order to block integrins on the cell surface. The role of integrin-binding was studied by measuring the proliferation of U87MG cells that had been pre-treated with EETI-2.5F (1) when exposed to increasing doses of 3 and KDCs 5a, 5c, and 5d. […] Media used to prepare varying concentrations of drug, protein, or protein-drug conjugate also contained 1 μM of 1. Prior to treatment, cells were incubated for 3 h at 37° C., 5% CO2 with fresh media containing 1 μM 1. After this pre-treatment, cells were incubated with varying concentrations of 5a, 5c, or 5d for 24 h and then media was replaced with fresh media and cells were incubated for an additional 48 h. Cell proliferation was measured using the Cell Counting Kit-8 by replacing the media in each well with 100 μL of media containing 10% WST-8. After incubation for 1 h at 37° C., absorbance at 450 nm was measured with a Synergy H4 microtiter plate reader. Cell proliferation was measured according to the method described in Section 1.3. Error bars represent the standard deviation of experiments performed in triplicate.

The subject of assay [4] is U87MG cells. The assay is described as follows: Cell proliferation, CCK-8 colorimetric assay. The format is cell-based. To be noted: U87MG cells; for Potency / growth inhibition in U87MG cells (in words): 4 d; for EC50: 4 d incubation, vs untreated control, read-out: ED50 (nM), potency. The method, then: as §1
Next, the potency of each KDC was tested in a cell-proliferation experiment. […] Cells were seeded in a 96-well plate at a density of 2,500 cells per well and grown overnight at 37° C., 5% CO2 in DMEM with 10% FBS and 1% penicillin/streptomycin. Cells were subsequently treated with 100 μL of fresh media, containing varying concentrations of drug, protein, or protein-drug conjugate and incubated for 4 d at 37° C., 5% CO2. Cell proliferation was measured according to the method described in Section 1.3. Error bars represent the standard deviation of experiments performed in triplicate. […] Given that the linker must be cleaved to release free Gemcitabine in order for the payload to become active, the low potency of 5b can be explained by the greater stability of the carbamate group as compared to the other linkers tested.

`CC(C)C[C@@H]1NC(=O)[C@@H]2CSSC[C@@H](C(=O)NCC(=O)O)NC(=O)[C@H](Cc3ccccc3)NC(=O)CNC(=O)[C@H](CC(N)=O)NC(=O)[C@@H]3CCCN3C(=O)CNC(=O)[C@@H]3CSSC[C@H](NC(=O)[C@H]([C@@H](C)O)NC(=O)[C@H](CC(C)C)NC(=O)[C@@H]4CCCN4C(=O)[C@@H]4CCCN4C(=O)[C@H](CC(N)=O)NC(=O)[C@H](CC(=O)O)NC(=O)CNC(=O)[C@H](CCCNC(=N)N)NC(=O)[C@@H]4CCCN4C(=O)[C@H](CCCNC(=N)N)NC(=O)[C@@H]4CCCN4C(=O)[C@@H](NC(=O)CN)CSSC[C@H](NC(=O)CNC(=O)[C@H](C)NC1=O)C(=O)N[C@@H](C(C)C)C(=O)N3)C(=O)N[C@@H](CCCn1cc(CCC(=O)OC[C@H]3O[C@@H](n4ccc(N)nc4=O)C(F)(F)[C@@H]3O)nn1)C(=O)N[C@@H](CCC(N)=O)C(=O)N[C@@H](CC(=O)O)C(=O)N[C@@H](CO)C(=O)N[C@@H](CC(=O)O)C(=O)N2` [5a]: the “Effect of hENT1 inhibitor 6 on potency (ED50) (in words)” value with U87MG cells [1] (U87MG cells, increasing concentrations of 6 up to 10 μM) is listed as “increased significantly”. Further, the “Fold Increase in ED50 in U87MG Cells” value was 0 in the assay with U87MG cells [1] ([6] = 0 nM); 1.1 ± 0.5 in the assay with U87MG cells [1] ([6] = 1 nM); 3.2 ± 0.3 with U87MG cells [1] ([6] = 10 nM); 14.5 ± 0.5 in the assay with U87MG cells [1] ([6] = 100 nM); 17.9 ± 0.0 with U87MG cells [1] ([6] = 1000 nM); 134.7 ± 0.4 with U87MG cells [1] ([6] = 10000 nM). Further, the concentration for half-maximal inhibition (IC50) with U87MG cells [2] amounted to 5.2 ± 3.6 nM. In addition, in the assay with U87MG cells [3], the “Effect of integrin blocking by pre-treatment with 1 on potency (in words)” value is reported as “did not diminish the potency”. Moreover, the “Potency / growth inhibition in U87MG cells (in words)” value (“Potency / growth inhibition” for short) with U87MG cells [4] was “low-nanomolar ED50 values”. In the assay with U87MG cells [4], the EC50 came out at 8.5 ± 3.3 nM.
Turning to `CC(C)C[C@@H]1NC(=O)[C@@H]2CSSC[C@@H](C(=O)NCC(=O)O)NC(=O)[C@H](Cc3ccccc3)NC(=O)CNC(=O)[C@H](CC(N)=O)NC(=O)[C@@H]3CCCN3C(=O)CNC(=O)[C@@H]3CSSC[C@H](NC(=O)[C@H]([C@@H](C)O)NC(=O)[C@H](CC(C)C)NC(=O)[C@@H]4CCCN4C(=O)[C@@H]4CCCN4C(=O)[C@H](CC(N)=O)NC(=O)[C@H](CC(=O)O)NC(=O)CNC(=O)[C@H](CCCNC(=N)N)NC(=O)[C@@H]4CCCN4C(=O)[C@H](CCCNC(=N)N)NC(=O)[C@@H]4CCCN4C(=O)[C@@H](NC(=O)CN)CSSC[C@H](NC(=O)CNC(=O)[C@H](C)NC1=O)C(=O)N[C@@H](C(C)C)C(=O)N3)C(=O)N[C@@H](CCCn1cc(CCCNC(=O)OC[C@H]3O[C@@H](n4ccc(N)nc4=O)C(F)(F)[C@@H]3O)nn1)C(=O)N[C@@H](CCC(N)=O)C(=O)N[C@@H](CC(=O)O)C(=O)N[C@@H](CO)C(=O)N[C@@H](CC(=O)O)C(=O)N2` [5b], the IC50 with U87MG cells [2] came to 3.3 ± 0.2 nM. In addition, in the assay on U87MG cells [4], the “Potency / growth inhibition” value is reported as “lacked significant potency” and the EC50 is above 1000 nM.
For `CC(C)C[C@@H]1NC(=O)[C@@H]2CSSC[C@@H](C(=O)NCC(=O)O)NC(=O)[C@H](Cc3ccccc3)NC(=O)CNC(=O)[C@H](CC(N)=O)NC(=O)[C@@H]3CCCN3C(=O)CNC(=O)[C@@H]3CSSC[C@H](NC(=O)[C@H]([C@@H](C)O)NC(=O)[C@H](CC(C)C)NC(=O)[C@@H]4CCCN4C(=O)[C@@H]4CCCN4C(=O)[C@H](CC(N)=O)NC(=O)[C@H](CC(=O)O)NC(=O)CNC(=O)[C@H](CCCNC(=N)N)NC(=O)[C@@H]4CCCN4C(=O)[C@H](CCCNC(=N)N)NC(=O)[C@@H]4CCCN4C(=O)[C@@H](NC(=O)CN)CSSC[C@H](NC(=O)CNC(=O)[C@H](C)NC1=O)C(=O)N[C@@H](C(C)C)C(=O)N3)C(=O)N[C@@H](CCCN=[N+]=[N-])C(=O)N[C@@H](CCC(N)=O)C(=O)N[C@@H](CC(=O)O)C(=O)N[C@@H](CO)C(=O)N[C@@H](CC(=O)O)C(=O)N2` [compound 2] (H-GCPRPRGDNPPLTC[Orn(N3)]QDSDCLAGCVCGPNGFCG-OH; disulfide 2-24, 14-26, 20-32; N-terminus and C-terminus assumed), in the assay on U87MG cells [2], the “Binding affinity to U87MG cells (in words)” value is given as “low-nanomolar binding affinity” and the IC50 came to 1.1 ± 1.8 nM. Further, in the assay on U87MG cells [4], the “Potency / growth inhibition” value is “did not show significant growth-inhibition activity” and the EC50 is above 1000 nM.
